According to a melting point compilation (Tetko et al.; mined from patent text by program, amines drawn as free bases though some values may be those of a salt):

Structure (SMILES)	melting point [°C]
N#CSc1cc2sc(NC(=O)C3CC3)nc2cc1F	256
CC(C)(CO)c1cc(NC(=O)C(C)(C)S(=O)(=O)CCC(F)(F)F)on1	162 to 163
CCN(CC)c1nc(C)nc(N)n1	125 to 127
COc1nc(NC(=O)NS(=O)(=O)Oc2ccccc2-c2ccon2)nc(OC)n1	166 to 168
COc1c(-c2ccc3cc(NS(C)(=O)=O)ccc3c2)cc(NC(N)=O)cc1C(C)(C)C	> 300
c1cn(CCCc2ccc(OCc3coc(-c4ccoc4)n3)cc2)cn1	85 to 87
Cc1c(C#N)sc2nc(-c3ccc([N+](=O)[O-])cc3)nc(N3CCNCC3)c12	250
COC(=O)CC=CC=Cc1ccccc1	71
O=C(c1nc2ccccc2s1)C1CCN(CCc2ccc(F)cc2)CC1	97 to 98
O=C(NCC1Cc2cccc(-c3ccc(F)cc3F)c2O1)OCc1ccccc1 (centres undefined)	78 to 80
CCCCCCCCCNC(=O)CCCC	29 to 31
Cc1ccccc1C(CCC(=O)O)Oc1cc(OCc2cccc(C(=O)O)c2)ccc1[N+](=O)[O-] (racemic)	85 to 87
CCN(Cc1cc(Br)ccc1OCc1ccccc1)c1ncc(C(=O)NS(=O)(=O)c2ccccc2)s1	140 to 145
COc1ccc(CC(C(=O)O)S(C)(=O)=O)cc1C(=O)NCc1ccc(C(F)(F)F)cc1 (centres undefined)	158 to 159
Cc1cccc(Nc2n[nH]c3ncnc(NCc4ccccc4)c23)c1	200 to 201
COC(=O)Cc1ccc(OCCNC(=O)C2Cc3ccccc3N2S(=O)(=O)c2ccc(-c3cc(F)ccc3Cl)cc2)cc1 (centres undefined)	52 to 56
ClC(Cl)=CCOc1cc(Cl)c(OCc2ccc(Cl)nc2)c(Cl)c1	93.3
O=C(Nc1nc2ccccc2s1)c1ccccc1C(c1ccc(O)cc1)c1ccc(O)cc1	140 to 141
Cc1ccc(S(=O)(=O)N(O)S(=O)(=O)c2ccc(C)cc2)cc1	125 to 126
Cc1ccc(NC(=O)c2ccc(C(=O)Nc3ccccc3N)nc2)cc1Nc1nccc(-c2cccnc2)n1	150 to 152
O=C1NC[C@@H]2CCCC[C@@H]12 (relative stereo)	85 to 88

Structure (SMILES)	melting point [°C]
CC(=O)Nc1nc(CCc2ccc(N)cc2)c(C(=O)Nc2ccccc2)s1	104 to 105
O=CC1=Cc2cc(OCc3ccccc3)ccc2OC1	112 to 114
CCCCc1nc2ccccc2n1Cc1ccc(-c2ccccc2-c2nnn[nH]2)cc1	230 to 232
COc1ccc(-c2nc3cccc(C(=O)NC4CC5CCCC(C4)N5C)c3o2)cc1 (centres undefined)	160 to 162
C[C@@H]1CNc2c(cccc2[N+](=O)[O-])[C@H](C)N1 (relative stereo)	62
NS(=O)(=O)c1ccc(-n2nc(C(F)(F)F)cc2-c2ccc(-c3cscn3)c(C(F)(F)F)c2)cc1F	140 to 142
COc1cc(CC(=O)CCNCCOc2ccc(C(=O)O)cc2OC)ccc1NC(=O)Nc1ccccc1C	115 to 118
c1ccc(CN2CCCC(c3ncc(-c4cnc(-c5ccccc5)nc4)[nH]3)C2)cc1 (centres undefined)	179
CC1(CS)C(=O)N2CCCC(C(=O)O)N2C1=O (centres undefined)	209 to 211
CCCCCCCCCCCCCCOc1ccc(CN(C(=O)c2cccnc2)c2ccccc2)cc1	65 to 67
N#CSCC(Cl)=C(Cl)CBr	64.5 to 66.5
CC(C)(C)c1cc(CCc2ccccc2NC(=O)NCCc2ccc(Cl)cc2)cc(C(C)(C)C)c1O	173 to 174
O=C(Cc1ccc(F)cc1)c1cccs1	61 to 62.5
O=C(N[C@H](Cc1cccc(OCC(F)(F)F)c1)[C@@H](O)c1ccc(F)cc1)c1cccc2c1C=CCCC2 (racemic)	172 to 173
CSc1cc2c(cc1C(F)(F)F)N(C(=O)Nc1ccc(C(=O)N(C)c3ccncc3)cc1)CC2	230 to 232
OCCCCOc1cnc(-c2ccccc2)c(-c2ccccc2)n1	93 to 95
CCOC(=O)C1=C(C)NC(CO)=C(C(=O)OCC)C1c1ccccc1[N+](=O)[O-] (centres undefined)	112 to 113
CCCCOc1c(CNC(=O)OC(C)(C)C)n(CC2CC2)c(=O)c2ccc(-c3cnco3)cc12	160 to 161
CC(C)c1ccc2c(c1)OC1(OC(=O)C(C)(C)C)c3ccccc3C(=O)C21OC(=O)C(C)(C)C (centres undefined)	153 to 157
CN1CCN(C(=O)OC2c3ccccc3C(=O)N2c2ccc3ncccc3n2)CC1 (centres undefined)	170 to 171
CN1Cc2c(C(N)=NO)ncn2-c2cccc(Br)c2C1=O	265 to 266

Structure (SMILES)	melting point [°C]
CCCCCCCCCCCCC1=C(OCC)C(=O)c2ccccc2C1=O	36 to 38
CC(=O)c1cccc(NC(=O)c2ccc3c(c2)CC(COCc2ccccc2)O3)c1O (centres undefined)	103 to 105
CC(=O)Nc1nc2c(s1)-c1nc(N3CCOCC3)ncc1C2	> 300
CN1CCC(c2cn(S(=O)(=O)c3ccccc3)c3ccc(OS(=O)(=O)c4ccccc4)cc23)CC1	123 to 127
Cc1ccc(NC(=O)c2ccc(C[N+]3([O-])CC[N+](C)([O-])CC3)cc2)cc1Nc1nccc(-c2cccnc2)n1 (centres undefined)	242 to 244
CC(C(=S)NCN1CCOCC1)c1ccccn1 (centres undefined)	69
COc1ccc(CN2C(=O)C(N)C(=O)N(CCC(C)C)c3ccccc32)cc1 (centres undefined)	115 to 116
O=C(O)c1ccc(COCc2csc3nc(C(=O)NCc4ccccc4)[nH]c(=O)c23)cc1	268 to 269
COc1ccc(-c2c(Cl)c(CN3C(=O)CCC3=O)nc3sc4c(F)c(OC)ccc4c23)cc1	215 to 216
CCCOc1cc(Br)ccc1-c1nc2cc3ncn(Cc4ccc(F)cc4)c3cc2c(=O)[nH]1	295 to 297
CCCOc1ccc2ccccc2c1-c1c(OCCC)ccc2ccccc12	87
CCC1(Cc2ccccc2)CCNC1=O (centres undefined)	89 to 90
NC(=O)Cc1cccc(OCCN2CCC(Cc3ccccc3)CC2)c1	100 to 101
CC(=O)NCCOc1cc(N)c(Cl)cc1C(=O)NCCN(C)C	143 to 145
CCC1CC(=O)N(CCc2ccc(NC(=O)c3ccno3)cc2)N=C1c1ccc(OC)c(OC)c1 (centres undefined)	196
O=C(O)c1ccc(OCCCCCCc2cccc(O)c2O)cc1	170 to 172
O=C(O)CCC(=O)Nc1ccc(Nc2ccccc2)cc1	175 to 176
COC(=O)C1=C(C)NC(C)=C(C(=O)OCCN2CCN(C(c3ccc(F)cc3)c3ccc(F)cc3)CC2)C1c1cccc(Cl)c1Cl (centres undefined)	90 to 93
CCOC(=O)C1=C(N)NC2=C(C(=O)CCC2)C1c1cccc2ccccc12 (centres undefined)	279
CC(=O)Nc1ccc(CN(C)C2CCOCC2)cc1	105 to 106
COc1ccc(NC(=S)Nc2ccc(NNC=O)cc2)cc1	198 to 200

More lines, now with the values ahead:

melting point [°C]	Structure (SMILES)
286 to 290	CCCCc1ncc(/C=C2\C(=O)NC(=O)N2c2ccccc2)n1Cc1ccc(C(=O)O)cc1
110 to 112	O=C(O)Cc1cc(Cl)c2c(c1)CCC(C(F)(F)F)N2 (centres undefined)
99 to 100	O=CC1CC1Nc1nccc(-n2nnc3ccccc32)n1 (centres undefined)
> 300	O=C(O)c1ccc(NC(=O)c2ccc(F)cc2)cc1
194 to 195	COC(=O)c1ccc2c(c1)ncn2N
338	Oc1ccc(-c2nnc(-c3ccc(O)cc3)o2)cc1
211 to 213	CCNC(=O)Nc1nc2cc(-c3cccnc3)cc(C(=O)OC)n2n1
112 to 113	Cc1ccc(-c2coc3c(C)c(C)cc(C)c23)cc1
55 to 59	CSc1ccc(C(=O)CBr)c(F)c1
73 to 74	O=C(Cl)c1cc(OCc2ccccc2)cc(OCc2ccccc2)c1
136 to 138	O=[N+]([O-])c1ccccc1S(=O)(=O)c1ccc(Cl)cc1
87 to 89	CCOC(=O)c1ccc(OCCCCC(=O)c2ccc(Cl)s2)cc1
137	CCOc1c(C)ccc2c1c1cc(Br)ccc1n2C(=O)OC(C)(C)C
173 to 174	ON=Cc1cc(Cl)ncc1Cl
145 to 146	CCOC(=O)c1cc(OCc2ccccc2)ccc1OCC(F)(F)F
152 to 153	Cc1oc2c(-n3c(=O)cc(C(F)(F)F)n(C)c3=O)ccc(Cl)c2c1C
83 to 85	CCC(=O)c1ccc(O)c(C)c1
226 to 227	Cc1ccccc1C(Oc1cc(OCc2cncs2)ccc1C#N)C(=O)O (centres undefined)

melting point [°C]	Structure (SMILES)
157 to 158	Oc1cc(O)cc(/C=C/c2ccccc2)c1
205 to 209	CC(C)c1cc(NC(=O)C(CS)Cc2ccccc2)cc(C(=O)O)c1 (centres undefined)
> 270	NC(=O)c1cnc(C(N)=O)cn1
187	Cc1cccc(C(=O)O)c1NC(=O)/C=C1\SCC(=O)N1C
103 to 104	Oc1cccnc1SCc1ccccc1
243 to 245	O=C(O)c1ccc2c(c1)N(C1CC1)CNS2(=O)=O
> 300	Cn1c2ccccc2c2ccc3c(c21)C(=O)OC3=O
92 to 93	Cc1cc(O)ccc1COCCn1ccnn1
142 to 144	Nc1ccc(F)cc1-c1nc[nH]n1
252 to 254	Cc1nncn1-c1ccc(Cl)cc1C(=O)O
96 to 98	CCOC(=O)C1=CC(CF)(CF)Oc2ccc([N+](=O)[O-])cc21
258 to 261	CC(=O)n1c2ccc(O)cc2c2c3c(c(-c4ccccc4Cl)cc21)C(=O)NC3=O
177 to 179	COc1ccc2cc(OCc3ccccc3)c(C(=O)O)cc2c1
114 to 116	CN(C)CCC1CCCCN1CCN(C)C(=O)N1c2ccccc2C(=O)Nc2cccnc21 (centres undefined)
92	CC(Oc1cccc(Oc2c(Cl)cc(C(F)(F)F)cc2Cl)c1)(C(=O)Cl)[N+](=O)[O-] (centres undefined)
71 to 73	CC(C)n1nc(C(=O)C(=O)c2ccccc2)ccc1=O
91.5 to 92.5	CC(c1ccc(-c2ccccc2)c(F)c1)c1nc(CN2CCOCC2)no1 (centres undefined)
208 to 212	COc1c(N2CCC(N)C2)c(F)cc2c(=O)c(C(=O)O)cn(C3CC3)c12 (centres undefined)
